Columns and labels:
[1] = test system: monosodium urate (MSU) models; experiment: Von-frey test in monosodium urate models; assay type: in vivo, mice; set-up: threshold values (Von-frey test): unit not given here; settings: monosodium urate model; for analgesic efficacy, Von-frey test (in words): oral 10, 20, 40, 80 mg/kg; for concentration of highest analgesic efficacy, Von-frey test: oral 10, 20, 40, 80 mg/kg tested
Protocol: 100 mg of uric acid and 60 μl of 10 N NaOH were dissolved in 20 ml of distilled water and the pH of the solution was adjusted to 7.2-7.4 with HCl (1 N) at 60° C. After stirring at room temperature for 5 days, the solution was plated in a 1 ml tube and stored for 4 days. The solution was vortexed overnight until needle-like crystals appeared. The solution was washed twice with 100% ethanol and centrifuged at 3000 rpm for 2 min. Finally, the MSU crystals were collected and dissolved in […] of endotoxin-free PBS. The resulting sample were injected intra-articularly into mice (MSU 300 μg/10 μl each) under anesthesia. At 24 h post-injection, pain or ankle swelling were measured to determine the analgesic efficacy of a test substance.
(§1) After damage to the sciatic nerve, allodynia induced by the mechanical stimulus was measured. Mice were housed in acrylic chambers on a steel mesh floor and acclimated for ≥60 min before testing. Continuous responses were evaluated using Von-frey filaments by the up-down method. The filaments were brought into vertical contact with the affected left soles and the contact was maintained for 5-6 sec. The response was considered to be positive when the mouse rapidly avoided the stimulus, startled or licked its sole. The Von-frey filaments were first used to stimulate the mice.
(§2) The analgesic efficacies of the test substances were evaluated in monosodium urate models. To this end, after oral administration of each test substance at concentrations of 10, 20, 40, and 80 mg/kg, threshold values were measured at different periods of time through Von-frey test.

[2] = test system: anticancer drug-induced peripheral neuropathy models (vincristine); experiment: Von-frey test in anticancer drug-induced peripheral neuropathy models; assay type: in vivo, mice; set-up: threshold values (Von-frey test): unit not given here
Source text: Vincristine is an anticancer drug that is widely used to treat malignant tumors, including breast cancer, leukemia, lymphoma, and primary brain tumor. However, vincristine was reported to cause neurotoxicity in peripheral nervous fibers and sensory or motor neuropathy after use. The anticancer drug vincristine is known to cause predictable and consistent neurotoxicity in all patients, particularly patients treated with therapeutic doses. When a patient receives a dose of vincristine, paresthesia accompanied by pain is first observed in proportion to the dose. As neuropathy develops, axons are lost together with motor function. Vincristine is also known to induce hypersensitivity of C nerve fiber nociceptors in the peripheral nervous system. Neuropathy was induced by administration of vincristine. First, 0.05 mg/kg of vincristine was administered intraperitoneally. Thereafter, vincristine was administered intraperitoneally twice a week for 6 weeks (0.125 mg/kg each). Neuropathic pain began to appear at week 3 after administration and significant pain was reported at week 4. The degree of neuropathic pain was measured through the […] (Junzo et al., 2005).
as §1
as §2, with “anticancer drug-induced peripheral neuropathy” for “monosodium urate”

[3] = test system: mice; experiment: Formalin test (5% formalin, hind foot sole); assay type: in vivo; set-up: formalin test pain response: unit not given beside the values; settings: for analgesic efficacy in formalin test (in words): 10, 20, 40, 80 mg/kg
Protocol: 5% formalin was injected subcutaneously into the soles of the hind feet of mice. The mice licked their soles and shook their paws owing to formalin-induced pain. At 20-40 min post-injection (2nd phase), the mice again licked their soles or shook their paws. Pain felt for 5 min post-injection (1st phase) is the same level as the sensation of pain when the body is harmfully stimulated. Pain between 20 and 40 min (2nd phase) is mainly tonic inflammatory pain and is known to be very similar to pain after a big surgical operation.
30 min after pretreatment with the compound 3 (E-S) at concentrations of 10, 20, 40, and 80 mg/kg, formalin test was conducted to assess the analgesic efficacy of the compound 3. […] The analgesic efficacy of the compound 4 (E-A) was assessed in the same manner as that of the compound 3.

[4] = 10 mg/kg, first column group (1st phase, not given)
[5] = 10 mg/kg, second column group (2nd phase, not given)
[6] = 20 mg/kg, first column group (1st phase, not given)
[7] = 20 mg/kg, second column group (2nd phase, not given)
[8] = 40 mg/kg, first column group (1st phase, not given)
[9] = 40 mg/kg, second column group (2nd phase, not given)
[10] = 80 mg/kg, first column group (1st phase, not given)
[11] = 80 mg/kg, second column group (2nd phase, not given)

O=C(NC1=NCC2c3ccccc3Cc3ccccc3N12)c1ccccc1O (stereo not drawn) [E-S, N-(9,13b-dihydro-1H-dibenzo[c,f]imidazo[1,5-a]azepin-3-yl)-2-hydroxybenzamide]
threshold values (Von-frey test) ([1]; oral 10 mg/kg, 1 h, 10 mg/kg): 0.173 | threshold values (Von-frey test) ([1]; oral 10 mg/kg, 2 h, 10 mg/kg): 0.211 | threshold values (Von-frey test) ([1]; oral 10 mg/kg, 3 h, 10 mg/kg): 0.148 | threshold values (Von-frey test) ([1]; oral 10 mg/kg, 4 h, 10 mg/kg): 0.166 | threshold values (Von-frey test) ([1]; oral 10 mg/kg, 5 h, 10 mg/kg): 0.107 | threshold values (Von-frey test) ([1]; oral 10 mg/kg, basal): 0.127 | threshold values (Von-frey test) ([1]; oral 20 mg/kg, 1 h, 20 mg/kg): 0.194 | threshold values (Von-frey test) ([1]; oral 20 mg/kg, 2 h, 20 mg/kg): 0.163 | threshold values (Von-frey test) ([1]; oral 20 mg/kg, 4 h, 20 mg/kg): 0.207 | threshold values (Von-frey test) ([1]; oral 20 mg/kg, 5 h, 20 mg/kg): 0.194 | threshold values (Von-frey test) ([1]; oral 20 mg/kg, basal): 0.127 | threshold values (Von-frey test) ([1]; oral 40 mg/kg, 1 h, 40 mg/kg): 0.183 | threshold values (Von-frey test) ([1]; oral 40 mg/kg, 2 h, 40 mg/kg): 0.214 | threshold values (Von-frey test) ([1]; oral 40 mg/kg, 3 h, 40 mg/kg): 0.278 | threshold values (Von-frey test) ([1]; oral 40 mg/kg, 4 h, 40 mg/kg): 0.257 | threshold values (Von-frey test) ([1]; oral 40 mg/kg, 5 h, 40 mg/kg): 0.152 | threshold values (Von-frey test) ([1]; oral 40 mg/kg, basal): 0.127 | threshold values (Von-frey test) ([1]; oral 80 mg/kg, 1 h, 80 mg/kg): 0.239 | threshold values (Von-frey test) ([1]; oral 80 mg/kg, 2 h, 80 mg/kg): 0.439 | threshold values (Von-frey test) ([1]; oral 80 mg/kg, 3 h, 80 mg/kg): 0.301 | threshold values (Von-frey test) ([1]; oral 80 mg/kg, 4 h, 80 mg/kg): 0.267 | threshold values (Von-frey test) ([1]; oral 80 mg/kg, 5 h, 80 mg/kg): 0.155 | threshold values (Von-frey test) ([1]; oral 80 mg/kg, basal): 0.138 | analgesic efficacy, Von-frey test (in words) [1]: concentration-dependent until 2 h after treatment | concentration of highest analgesic efficacy, Von-frey test [1]: 80 mg/kg | concentration of highest analgesic efficacy, Von-frey test ([2]; 1 h after treatment, oral 10, 20, 40, 80 mg/kg tested): 80 mg/kg | threshold values (Von-frey test) ([2]; oral 10 mg/kg, 1 h): 0.110 | threshold values (Von-frey test) ([2]; oral 10 mg/kg, 2 h): 0.163 | threshold values (Von-frey test) ([2]; oral 10 mg/kg, 3 h): 0.180 | threshold values (Von-frey test) ([2]; oral 10 mg/kg, 4 h): 0.145 | threshold values (Von-frey test) ([2]; oral 10 mg/kg, 5 h): 0.135 | threshold values (Von-frey test) ([2]; oral 10 mg/kg, basal): 0.113 | threshold values (Von-frey test) ([2]; oral 20 mg/kg, 1 h): 0.173 | threshold values (Von-frey test) ([2]; oral 20 mg/kg, 2 h): 0.208 | threshold values (Von-frey test) ([2]; oral 20 mg/kg, 3 h): 0.191 | threshold values (Von-frey test) ([2]; oral 20 mg/kg, 4 h): 0.137 | threshold values (Von-frey test) ([2]; oral 20 mg/kg, 5 h): 0.194 | threshold values (Von-frey test) ([2]; oral 20 mg/kg, basal): 0.157 | threshold values (Von-frey test) ([2]; oral 40 mg/kg, 1 h): 0.324 | threshold values (Von-frey test) ([2]; oral 40 mg/kg, 2 h): 0.306 | threshold values (Von-frey test) ([2]; oral 40 mg/kg, 3 h): 0.270 | threshold values (Von-frey test) ([2]; oral 40 mg/kg, 4 h): 0.239 | threshold values (Von-frey test) ([2]; oral 40 mg/kg, 5 h): 0.194 | threshold values (Von-frey test) ([2]; oral 40 mg/kg, basal): 0.173 | threshold values (Von-frey test) ([2]; oral 80 mg/kg, 1 h): 0.408 | threshold values (Von-frey test) ([2]; oral 80 mg/kg, 2 h): 0.385 | threshold values (Von-frey test) ([2]; oral 80 mg/kg, 3 h): 0.390 | threshold values (Von-frey test) ([2]; oral 80 mg/kg, 4 h): 0.239 | threshold values (Von-frey test) ([2]; oral 80 mg/kg, 5 h): 0.242 | threshold values (Von-frey test) ([2]; oral 80 mg/kg, basal): 0.176 | analgesic efficacy, Von-frey test (in words) ([2]; oral 10, 20, 40, 80 mg/kg): concentration-dependent until 1 h after treatment and was maintained until 3 h after treatment | formalin test pain response [3, 4]: 66.25 | formalin test pain response [3, 5]: 48.5 | formalin test pain response [3, 6]: 60.5 | formalin test pain response [3, 7]: 48.25 | formalin test pain response [3, 8]: 60.5 | formalin test pain response [3, 9]: 45.0 | formalin test pain response [3, 10]: 52.0 | formalin test pain response [3, 11]: 44.5 | analgesic efficacy in formalin test (in words) [3]: observed in the 2nd phase

CC(=O)Oc1ccccc1C(=O)NC1=NCC2c3ccccc3Cc3ccccc3N12 (stereo not drawn) [E-A, 2-((9,13b-dihydro-1H-dibenzo[c,f]imidazo[1,5-a]azepin-3-yl)carbamoyl)phenyl acetate]
threshold values (Von-frey test) ([1]; oral 10 mg/kg, basal): 0.186 | threshold values (Von-frey test) ([1]; oral 20 mg/kg, basal): 0.208 | threshold values (Von-frey test) ([1]; oral 40 mg/kg, basal): 0.190 | threshold values (Von-frey test) ([1]; oral 80 mg/kg, basal): 0.186 | analgesic efficacy, Von-frey test (in words) [1]: concentration-dependent until 2-3 h after treatment | concentration of highest analgesic efficacy, Von-frey test [1]: 80 mg/kg | formalin test pain response [3, 4]: 73.0 | formalin test pain response [3, 5]: 102.0 | formalin test pain response [3, 6]: 54.7 | formalin test pain response [3, 7]: 83.5 | formalin test pain response [3, 8]: 62.0 | formalin test pain response [3, 9]: 60.0 | formalin test pain response [3, 10]: 61.5 | formalin test pain response [3, 11]: 60.0 | analgesic efficacy in formalin test (in words) [3]: observed in the 2n^d phase

From patent US11396511B2, “Substituted 9,13b-dihydro-1H-dibenzo[c,f]imidazo[1,5-a]azepin-3-ylbenzamides as anti-inflammatory and analgesic agents” (FRONTBIO CO., LTD., priority 2017, dated 2022)
